We go through one molecule from ChEMBL document CHEMBL5728262, “Oxadiazolones as transient receptor potential channel inhibitors” (2021).

The assay addresses Transient receptor potential cation channel subfamily A member 1 (Homo sapiens, UniProt O75762). Nature of the assay: FLIPR Assay: The IC50 (effective concentration) of compounds on the human and rat TRPA1 channels were determined using a FLIPR Tetra instrument. CHO cells expressing TRPA1 were plated into 384-well plates, incubated overnight at 37° C., and loaded with BD calcium indicator dye for 1 hr at 37° C. followed by 15 minutes at room temperature. The assay buffer was Hank's Balanced Salt Solution (HBSS) containing 20 mM HEPES (pH readjusted to 7.4) along with 0.02% BSA.Following dye load and plate cool down, compounds were added to the cells using FLIPR Tetra. Plates were then incubated with compounds for 20 minutes at room temperature prior to adding agonist. […] Fixing the Hill coefficient will generally reduce variability of the IC50 determination. The IC50 results were individually examined to make sure the MIN and MAX points were set correctly prior to validation of the results.

Chain of Transient receptor potential cation channel subfamily A member 1 (O75762 whole entry): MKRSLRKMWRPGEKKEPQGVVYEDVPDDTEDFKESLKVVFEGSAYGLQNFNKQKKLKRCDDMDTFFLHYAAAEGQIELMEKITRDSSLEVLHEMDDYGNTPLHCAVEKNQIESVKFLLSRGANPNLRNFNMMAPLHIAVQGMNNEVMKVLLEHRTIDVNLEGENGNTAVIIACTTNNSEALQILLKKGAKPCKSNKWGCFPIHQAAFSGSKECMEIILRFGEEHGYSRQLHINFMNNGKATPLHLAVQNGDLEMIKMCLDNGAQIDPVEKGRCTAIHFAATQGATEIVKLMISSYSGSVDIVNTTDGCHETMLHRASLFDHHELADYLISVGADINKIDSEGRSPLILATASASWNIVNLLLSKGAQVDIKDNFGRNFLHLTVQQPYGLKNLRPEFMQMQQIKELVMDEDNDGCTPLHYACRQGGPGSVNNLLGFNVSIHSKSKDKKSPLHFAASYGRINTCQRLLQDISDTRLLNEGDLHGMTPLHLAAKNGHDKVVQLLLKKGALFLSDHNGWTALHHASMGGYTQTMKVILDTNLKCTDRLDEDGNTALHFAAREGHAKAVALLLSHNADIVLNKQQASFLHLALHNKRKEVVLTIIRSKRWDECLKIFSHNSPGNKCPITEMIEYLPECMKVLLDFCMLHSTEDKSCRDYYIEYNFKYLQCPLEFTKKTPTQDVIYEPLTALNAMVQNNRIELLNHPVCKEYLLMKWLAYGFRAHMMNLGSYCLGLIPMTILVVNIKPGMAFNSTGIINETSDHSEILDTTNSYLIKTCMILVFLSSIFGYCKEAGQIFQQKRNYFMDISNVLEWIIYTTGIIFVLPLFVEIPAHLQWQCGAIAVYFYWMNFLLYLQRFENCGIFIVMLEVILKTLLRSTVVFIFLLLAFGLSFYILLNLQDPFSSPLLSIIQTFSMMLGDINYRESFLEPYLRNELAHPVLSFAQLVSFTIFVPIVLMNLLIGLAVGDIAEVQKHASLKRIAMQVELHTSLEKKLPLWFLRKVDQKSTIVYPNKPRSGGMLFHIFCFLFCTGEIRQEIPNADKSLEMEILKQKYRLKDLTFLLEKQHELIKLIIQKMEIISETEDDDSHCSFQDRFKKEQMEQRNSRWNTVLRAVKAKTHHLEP

As usually defined, the IC50 is the concentration that gives 50% inhibition. On to `Cn1nc(C#N)c2ncn(Cc3nn(CCc4ccc(Cl)cc4)c(=O)o3)c(=O)c21`, for which the IC50 came to 100 nM.
